Experiments:
[1] = molecular target: T1, 5-hydroxytryptamine receptor 1A (Homo sapiens, UniProt P08908); test: Binding affinity at human cloned 5-hydroxytryptamine 1A receptor expressed in HeLa cells by [3H]8-hydroxy-2-(di-n-propylamino)tetraline displacement.; format: cell-based
T1 sequence (P08908 whole entry): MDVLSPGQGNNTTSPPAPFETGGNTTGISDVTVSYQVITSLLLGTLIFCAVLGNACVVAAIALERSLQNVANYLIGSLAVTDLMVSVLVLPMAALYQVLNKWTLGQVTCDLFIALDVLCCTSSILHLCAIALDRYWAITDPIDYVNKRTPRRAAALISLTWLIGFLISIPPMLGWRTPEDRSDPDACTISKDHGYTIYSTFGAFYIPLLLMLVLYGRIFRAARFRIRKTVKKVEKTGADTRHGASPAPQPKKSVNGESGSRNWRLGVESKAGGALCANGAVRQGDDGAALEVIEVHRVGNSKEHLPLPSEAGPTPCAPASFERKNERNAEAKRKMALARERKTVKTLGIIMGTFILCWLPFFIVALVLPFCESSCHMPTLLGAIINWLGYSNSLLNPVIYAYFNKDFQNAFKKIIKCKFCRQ

[2] = molecular target: T2, Alpha-1D adrenergic receptor (Homo sapiens, UniProt P25100); test: Binding affinity at human cloned Alpha-1D adrenergic receptor in chinese hamster ovary cells by [3H]prazosin displacement.; format: cell-based, CHO
T2 sequence (P25100 whole entry): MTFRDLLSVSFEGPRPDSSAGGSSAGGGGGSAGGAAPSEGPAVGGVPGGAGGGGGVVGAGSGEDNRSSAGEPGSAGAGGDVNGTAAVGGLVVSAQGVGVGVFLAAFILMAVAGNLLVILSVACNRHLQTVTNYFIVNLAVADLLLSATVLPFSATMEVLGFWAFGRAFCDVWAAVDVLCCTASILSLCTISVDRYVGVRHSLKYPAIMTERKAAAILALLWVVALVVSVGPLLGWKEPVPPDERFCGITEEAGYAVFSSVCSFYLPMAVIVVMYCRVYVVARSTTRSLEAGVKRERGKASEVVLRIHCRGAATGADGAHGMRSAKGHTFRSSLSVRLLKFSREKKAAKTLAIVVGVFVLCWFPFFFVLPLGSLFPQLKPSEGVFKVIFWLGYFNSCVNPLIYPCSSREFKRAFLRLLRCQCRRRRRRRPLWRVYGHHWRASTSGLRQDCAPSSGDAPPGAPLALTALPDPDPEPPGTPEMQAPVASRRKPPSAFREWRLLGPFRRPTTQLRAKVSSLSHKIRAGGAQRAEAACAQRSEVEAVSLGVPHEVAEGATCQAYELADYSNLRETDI

[3] = molecular target: T3, Alpha-1A adrenergic receptor (Rattus norvegicus, UniProt P43140); test: Antagonism of the norepinephrine induced contraction of rat isolated prostatic vas deferens.; format: functional; conditions: read-out: pA2 (converted)
T3 sequence (P43140 whole entry): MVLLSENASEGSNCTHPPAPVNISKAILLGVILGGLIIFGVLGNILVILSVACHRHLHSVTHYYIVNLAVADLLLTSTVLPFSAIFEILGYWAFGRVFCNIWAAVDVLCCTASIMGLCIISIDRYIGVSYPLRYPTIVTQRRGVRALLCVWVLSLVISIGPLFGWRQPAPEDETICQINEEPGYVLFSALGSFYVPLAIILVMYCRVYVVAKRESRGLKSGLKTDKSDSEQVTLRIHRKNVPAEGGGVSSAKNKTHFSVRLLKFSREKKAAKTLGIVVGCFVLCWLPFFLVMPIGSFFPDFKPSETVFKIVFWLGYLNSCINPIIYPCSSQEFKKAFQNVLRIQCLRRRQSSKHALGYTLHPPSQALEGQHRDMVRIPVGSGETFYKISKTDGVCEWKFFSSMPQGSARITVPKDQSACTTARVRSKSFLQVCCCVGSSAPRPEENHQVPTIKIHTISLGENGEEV

[4] = molecular target: T4, Alpha-1D adrenergic receptor (Rattus norvegicus, UniProt P23944); test: Antagonism of norepinephrine induced contraction of rat isolated thoracic aorta.; format: functional, tissue-based; conditions: read-out: pA2 (converted)
T4 sequence (P23944 whole entry): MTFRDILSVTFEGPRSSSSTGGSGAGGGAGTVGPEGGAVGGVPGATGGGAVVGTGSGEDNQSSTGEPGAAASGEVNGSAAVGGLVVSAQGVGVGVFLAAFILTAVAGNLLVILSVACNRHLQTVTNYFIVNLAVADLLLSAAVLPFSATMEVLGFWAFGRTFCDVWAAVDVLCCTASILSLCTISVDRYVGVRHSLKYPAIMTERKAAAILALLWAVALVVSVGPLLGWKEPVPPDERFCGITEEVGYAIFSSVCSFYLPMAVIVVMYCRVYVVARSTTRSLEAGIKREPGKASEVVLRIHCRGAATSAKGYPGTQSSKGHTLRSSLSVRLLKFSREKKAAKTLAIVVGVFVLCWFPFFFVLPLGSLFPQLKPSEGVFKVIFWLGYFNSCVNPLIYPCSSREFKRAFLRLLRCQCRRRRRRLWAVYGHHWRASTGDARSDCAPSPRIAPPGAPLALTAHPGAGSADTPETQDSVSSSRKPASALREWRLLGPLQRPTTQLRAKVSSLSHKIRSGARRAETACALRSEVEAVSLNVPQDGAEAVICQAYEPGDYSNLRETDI

[5] = molecular target: T5, Alpha-1B adrenergic receptor (Homo sapiens, UniProt P35368); test: Binding affinity at human cloned Alpha-1B adrenergic receptor in chinese hamster ovary cells by [3H]prazosin displacement.; format: cell-based, CHO
T5 sequence (P35368 whole entry): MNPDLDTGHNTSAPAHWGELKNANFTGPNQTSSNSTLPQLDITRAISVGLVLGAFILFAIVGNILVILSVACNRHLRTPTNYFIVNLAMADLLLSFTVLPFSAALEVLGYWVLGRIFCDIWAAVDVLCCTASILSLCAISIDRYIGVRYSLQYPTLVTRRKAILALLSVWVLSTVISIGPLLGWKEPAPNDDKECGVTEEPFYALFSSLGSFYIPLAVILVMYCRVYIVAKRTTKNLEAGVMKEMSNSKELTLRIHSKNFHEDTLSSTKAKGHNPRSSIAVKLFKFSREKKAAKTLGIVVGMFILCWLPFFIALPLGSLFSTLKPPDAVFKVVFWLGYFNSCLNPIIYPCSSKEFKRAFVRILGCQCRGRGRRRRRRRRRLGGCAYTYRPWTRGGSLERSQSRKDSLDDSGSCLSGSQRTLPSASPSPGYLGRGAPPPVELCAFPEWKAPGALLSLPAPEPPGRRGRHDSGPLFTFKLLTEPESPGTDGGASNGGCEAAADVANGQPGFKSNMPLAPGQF

- Ki [1]: 741 nM
- Ki [2]: 0.245 nM
- Kb [3]: 55 nM
- Kb [4]: 5.5 nM
- Ki [5]: 0.166 nM
Compound: COc1cc2nc(N(C)CCCCCCN(C)C(=O)c3cccc(CN(C)C)c3)nc(N)c2cc1OC
